Measured values taken from patent EP0105732A2, “Histamine H2 receptor antagonists of the benzisothiazole amino and benzthiadiazine amino series” (BEECHAM GROUP PLC, priority 1982, dated 1984).
Values belong to the compound of their own block, whether it stands above or below them.

Experiments:
[1] = tested on: gastric acid secretion; assay: perfused rat stomach preparation (histamine-stimulated acid secretion, anaesthetised rat); assay type: in vivo; details: bolus intravenous, maximal reduction in hydrogen-ion concentration as percentage of control, histamine infusion; for inhibition in vivo at 0.2 µmol/kg: dose 0.2 µmole/kg; for inhibition in vivo at 1 µmol/kg: dose 1 µmole/kg; for inhibition in vivo at 0.5 µmol/kg: dose 0.5 µmole/kg; for inhibition in vivo at 0.1 µmol/kg: dose 0.1 µmole/kg
Description: The ability of the compounds of the invention to modify the pH of gastric acid secretion was investigated as follows:
The modified (1) perfused stomach preparation (2) of the urethane (25% solution) anaesthetised rat, maintained at 37°C, allows the continuous measurement of pH during basal and stimulated acid secretion.
The lumen of the stomach of male Wistar rats (approximately 200 g bodyweight) was perfused, via a cannula designed to reduce the dead space of the stomach, with 5% glucose solution (37°C) at the rate of 3 ml/min. The perfusate was forced over the surface of the secretory mucosa only, the antrum being excluded. The effluent then passed over a microflow-type glass pH eletrode via a collecting funnel situated in the non- glandular forestomach.
The secretagogue histamine was administered as a constant intravenous infusion to produce a steady rate of acid secretion. Test compounds were administered in solution as bolus intravenous injections and any effect on the pH of the perfusate noted. The perfusate pH was recorded on a potentiometric recorder and anti-secretory responses were measured in terms of the maximal reduction in hydrogen-ion concentration expressed as a percentage of the control concentration.

[2] = target: T1, histamine H2-receptor (Cavia porcellus, UniProt P47747); assay: Guinea-pig isolated atria (antagonism of histamine positive chronotropic response); assay type: cell-based
T1 construct: The atria were dissected free and mounted in a jacketed 5 ml capacity tissue bath; from tissue; host or cells: guinea-pig isolated atria
Description: This test is designed to specifically detect histamine H2-receptor antagonists. Guinea-pigs of either sex, weighing between 250 and 500 g, were killed by cervical dislocation and exsanguination. The heart was removed and placed in cold McEwens solution. The atria were dissected free and mounted in a jacketed 5 ml capacity tissue bath containing McEwens solution maintained at 32 °C and gassed with a 95% oxygen, 5% carbon dioxide gas mixture. Atrial beating was detected by an auxotonic lever and from thence recorded on a Devices MX2 hot wire pen recorder. Atrial rate was derived from the amplified force signal using a Devices Instantaneous Ratemeter and recorded on the MX2 pen recorder. […] To avoid disruption of the tissue by repeated washing, responses to cumulative concentrations of histamine were obtained in the absence (control) and then presence of various concentrations of test compounds. The ability to antagonise histamine mediated positive chronotropic responses of this tissue is believed to be specific for H2-receptor antagonists. Such activity was assessed by examining the ability of test compounds to shift to the right the plotted concentration/response curves to histamine.

[3] = Concentration 7.5 x 10^-8 Molar, 0.075 µM
[4] = Concentration 5 x 10^-7 Molar, 0.5 µM
[5] = Concentration 2.5 x 10^-7 Molar, 0.25 µM

T1 sequence (P47747 whole entry): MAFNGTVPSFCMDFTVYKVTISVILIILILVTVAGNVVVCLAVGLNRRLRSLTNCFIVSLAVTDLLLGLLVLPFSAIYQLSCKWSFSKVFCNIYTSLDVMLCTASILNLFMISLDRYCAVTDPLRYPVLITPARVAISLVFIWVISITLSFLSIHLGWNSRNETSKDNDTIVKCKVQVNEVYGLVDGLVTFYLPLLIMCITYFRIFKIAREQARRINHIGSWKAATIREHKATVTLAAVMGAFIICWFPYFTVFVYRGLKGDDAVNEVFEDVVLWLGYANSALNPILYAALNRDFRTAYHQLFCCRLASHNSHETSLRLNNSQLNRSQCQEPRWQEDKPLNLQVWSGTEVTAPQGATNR

Activity (Decrease in Histamine Potency) [2, 4]: Active
Compound: CN(C)Cc1ccc(CSCCNC2=NS(=O)(=O)c3cc([N+](=O)[O-])ccc32)o1 [Example 6]
inhibition in vivo at 1 µmol/kg [1]: 75%

Activity (Decrease in Histamine Potency) ([2]; Concentration 1 x 10^-5 Molar, 10 µM): Active
Compound: CN(C)Cc1ccc(CSCCNC2=NS(=O)(=O)c3cc(Cl)ccc32)o1 [Example 8, N-[2-(5-dimethylaminomethylfuran-2-ylmethylthio)ethyl]-6-chloro-1,2benzoisothiazole-3-amine-1,1-dioxide]
inhibition in vivo at 5 µmol/kg ([1]; dose 5 µmole/kg): 75%

Activity (Decrease in Histamine Potency) [2, 5]: Active
Compound: O=S1(=O)N=C(NCCCOc2cccc(CN3CCCCC3)c2)c2ccccc21 [Example 10, N-[3-(3-piperid-1-ylmethylphenoxy)propyl]-1,2-henzoiso-thiazole-3-amine-1,1-dioxide]
inhibition in vivo at 0.5 µmol/kg [1]: 100%

Activity (Decrease in Histamine Potency) ([2]; Concentration 1 x 10^-7 Molar, 0.1 µM): Active
Compound: O=[N+]([O-])c1cccc2c1C(NCCCOc1cccc(CN3CCCCC3)c1)=NS2(=O)=O [Example 11, N-[3-(3-piperid-1-ylmethylphenoxy)propyl]-4-nitro-1,2-benzoisothiazole-3-amine-1,1-dioxide]
inhibition in vivo at 0.5 µmol/kg [1]: 100%

Activity (Decrease in Histamine Potency) ([2]; Concentration 1 x 10^-6 Molar): Active
Compound: CN(C)Cc1cccc(OCCCNC2=NS(=O)(=O)c3ccccc32)c1 [Example 12, N-[3-(3-dimethylaminomethylphenoxy)propyl]-1,2-benzoiso-thiazole-3-amine-1,1-dioxide]
inhibition in vivo at 0.5 µmol/kg [1]: 94%

Activity (Decrease in Histamine Potency) ([2]; Concentration 1 x 10^-6 Molar): Active
Compound: N=C(N)Nc1nc(CSCCNC2=NS(=O)(=O)c3cccc([N+](=O)[O-])c32)cs1 [Example 13, N-[2-(2-guanidinothiazol-4-ylmethylthio)ethyl]-4-nitro-1,2-benzoisothiazole-3-amine-1,1-dioxide]

Activity (Decrease in Histamine Potency) [2, 4]: Active
Compound: CN(C)Cc1ccc(CSCCNC2=NS(=O)(=O)c3cc(N)ccc32)o1 [Example 14, N^3-[2-(5-dimethylaminomethylfuran-2-ylmethylthio)ethyl]-1,2-benzoisothiazole-3,6-diamine-1,1-dioxide]
inhibition in vivo at 0.2 µmol/kg [1]: 60%

Activity (Decrease in Histamine Potency) [2, 3]: Active
Compound: Nc1cccc2c1C(NCCCOc1cccc(CN3CCCCC3)c1)=NS2(=O)=O [Example 16, N^3-[3-(3-piperid-1-ylmethylphenoxy)propyl]-1,2-benzoiso-thiazole-3,4-diamine-1,1-dioxide]
inhibition in vivo at 0.1 µmol/kg [1]: 100%

Activity (Decrease in Histamine Potency) [2, 5]: Active
Compound: NC(N)=Nc1nc(CSCCNC2=NS(=O)(=O)c3cccc(N)c32)cs1 [Example 20, N^3-[2-('2-guanidinothiazole-4-ylmethylthio)ethyl]-1,2-benzoisothiazole-3,4-diamine-1,1-dixide]
inhibition in vivo at 0.2 µmol/kg [1]: 100%

Activity (Decrease in Histamine Potency) ([2]; Concentration 1 x 10^-6 Molar): Active
Compound: CN(C)Cc1ccc(CSCCNC2=Nc3ccccc3S(=O)(=O)N2)o1 [Example 39, N-[2-({5-Dimethylaminomethylfuran-2-yl)methylthio)ethyl] 1,2,4-benzothiadiazine-3-amine-1,1-dioxide]
inhibition in vivo at 0.5 µmol/kg [1]: 78%

Further lines, the compound ahead of its results:

Compound: CN(C)Cc1ccc(CSCCNC2=NS(=O)(=O)c3cccc([N+](=O)[O-])c32)o1 [Example 1, N-[2-(5-dimethylaminomethylfuran-2-ylmethylthio)ethyl]4-nitro-1,2-benzoisothiazole-3-amine-1,1-dioxide]
inhibition in vivo at 0.2 µmol/kg [1]: 87% | Activity (Decrease in Histamine Potency) ([2]; Concentration 7.5 x 10^-7 Molar, 0.75 µM): Active

Compound: CN(C)Cc1ccc(CSCCNC2=NS(=O)(=O)c3cccc(N)c32)o1 [Example 2, N^3-[2-(5-dimethylaminomethylfuran-2-ylmethylthio)ethyl]1,2-benzoisothiazole-3,4-diamine-1,1-dioxide]
inhibition in vivo at 0.2 µmol/kg [1]: 100% | Activity (Decrease in Histamine Potency) [2, 3]: Active

Compound: CN(C)Cc1ccc(CSCCNC2=NS(=O)(=O)c3ccccc32)o1 [Example 3, N-[2-(5-dimethylaminomethylfuran-2-ylmethylthio)ethyl]-1,2-benzoisothiazole-3-amine-l,1-dioxide]
inhibition in vivo at 1 µmol/kg [1]: 100% | Activity (Decrease in Histamine Potency) [2, 4]: Active

Compound: CN(C)Cc1ccc(CSCCNC2=NS(=O)(=O)c3ccc([N+](=O)[O-])cc32)o1 [Example 5, N-[2-(5-dimethylaminomethylfuran-2-ylmethylthio)ethyl] 5-nitro-1,2-benzoisothizaole-3-amine-1,1-dioxide]
inhibition in vivo at 2 µmol/kg ([1]; dose 2 µmole/kg): 80%

Compound: CN(C)Cc1ccc(CSCCNC2=NS(=O)(=O)c3c2cccc3[N+](=O)[O-])o1 [Example 7, N-2-(5-dimethylamihomethylfuran-2-ylmethylthioethyl] -7-nitro-1,2-benzoisothizaole-3-amine-1,1-dioxide]
inhibition in vivo at 0.5 µmol/kg [1]: 68%

Compound: CN(C)Cc1ccc(CSCCNC2=NS(=O)(=O)c3cc(S(=O)(=O)N(C)C)ccc32)o1 [Example 9, N-[2-(5-Dimethylaminomethylfuran-2-ylmethylthio)ethyl] -6-dimethylsulphamoyl-1,2-benzoisothizaole-3-amine-1,1-dioxide]
inhibition in vivo at 0.1 µmol/kg [1]: 89%

Compound: CN(C)Cc1ccc(CSCCNC2=NS(=O)(=O)c3c(N)cccc32)o1 [Example 15, N^3-[2-(5-dimethylaminomethylfuran-2-lmethylthio)ethyl]-1,2-benzoisothiazole-3,7-diamine-1,1dioxide]
inhibition in vivo at 0.4 µmol/kg ([1]; dose 0.4 µmole/kg): 60%

Compound: O=S1(=O)NC(NCCCOc2cccc(CN3CCCCC3)c2)=Nc2ccccc21 [Example 40, N-[3-(3-{1-piperidylmethyl}phenoxy)propyl]-1,2,4-benzothia-diazine-3-amine-1,1-dioxide]
inhibition in vivo at 0.5 µmol/kg [1]: 94%
